Legend:
[1] = test system: HGC-27 human gastric carcinoma cell line; experiment: cells; conditions: Homo sapiens, HGC-27, 72 h
[2] = test system: SK-MEL-2 human melanoma cell line; experiment: cells; conditions: Homo sapiens, SK-MEL-2, 72 h
How it was run: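 SK-MEL-2 melanoma cells (5,000/well) grown 24 h drug-free, then exposed 72 h to vehicle or test compounds. Viability by MTT reduction (8 h, 37 °C), formazan dissolved in DMSO; results expressed as percentage of control cell growth.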

[3] = test system: PANC-1 human pancreatic carcinoma cell line; experiment: cells; conditions: Homo sapiens, PANC-1, 72 h
How it was run: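 Cells seeded at 5,000/well, left 24 h drug-free, then exposed to test compounds for 72 h. Viability read by MTT reduction (MTT added for 8 h at 37° C, formazan dissolved in DMSO).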

[4] = test system: PC-3 human prostate cancer cell line; experiment: cells; conditions: Homo sapiens, PC-3, 72 h
How it was run: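 Cells seeded at 5,000/well, grown 24 h drug-free, then exposed to vehicle or test compounds for 72 h. Viability by MTT reduction (8 h, 37 °C), formazan dissolved in DMSO. Values given as percentage of control cell growth.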

[5] = test system: A673 human rhabdomyosarcoma cell line; experiment: cells; conditions: Homo sapiens, A673, 72 h
How it was run: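 A673 cells seeded at 5,000 per well, grown 24 h drug-free, then exposed to compounds for 72 h. Viability by MTT reduction (8 h, 37 °C), formazan dissolved in DMSO. Results expressed as percentage of control cell growth.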

[6] = test system: RXF-393 human kidney carcinoma cell line; experiment: cells; conditions: Homo sapiens, RXF 393, 72 h
[7] = test system: MDA-MB-231 human breast adenocarcinoma cell line; experiment: cells; conditions: Homo sapiens, MDA-MB-231, 72 h
[8] = test system: HepG2 human hepatocellular liver carcinoma cell line; experiment: MTT cytotoxicity assay in HepG2 cells: IC50 of single agents and combinations with PM01183; assay type: cell-based; conditions: Homo sapiens, HepG2, 72 h
[9] = test system: IGROV-1 human ovarian adenocarcinoma cell line; experiment: cells; conditions: Homo sapiens, IGROV-1, 72 h
[10] = test system: U-937 human lymphoma cell line; experiment: cells; conditions: Homo sapiens, U-937, 72 h
Description: (§1) Briefly, cells were seeded in 96 well microtiter plates at a density of 50000 cells per well in 150 μL of culture medium and incubated for 4-6 hours in drug-free medium before treatment with vehicle alone or test compounds for 72 hours.
(§2) After incubation, the cytotoxic effect was evaluated using a MTT reduction assay. 50 μL of MTT solution (1 mg/mL) were added to the wells and incubated for 15-17 hours at 37° C. until formazan crystals were formed. After gently removing the culture medium, DMSO was added to dissolve the insoluble purple formazan product into a colored solution. […] Results were expressed as percentage of control cell growth. The EC50 values (half-maximal effective concentration) used for the combination studies were calculated using Prism v5.02 software (GraphPad). EC50 was expressed as molar concentration and represented the mean of at least three independent assays.
(§3) Using these starting concentrations, constant serial dilutions were performed to generate the concentration-response curves for each set of drugs, alone and in combination.
(§4) Based on this equation, the term “combination index” (CI) is used as a quantitative measure of the degree of drug interactions. […] CI values were calculated by solving the equation for different values of fa (i.e., for different degrees of cell groth inhibition).
(§5) Data were analyzed using CalcuSyn software (Biosoft, Cambridge, UK). For statistical analysis and graphs Prism software (GraphPad, San Diego, USA) was used. All the results represent the mean of at least three independent experiments.
(§6) Additional serial dilutions were prepared in serum-free culture medium to achieve a final 4× concentration. Aliquots of 50 μL of each diluted compound were added per well.
(§7) In the second set of assays, concentration-response curves for the agents tested, both alone and in two-drug combination, were performed.

[11] = test system: RAMOS human lymphoma cell line; experiment: cells; conditions: Homo sapiens, Ramos, 72 h
Description: as §1, §2, §3, §4, §5, §6, §7

[12] = test system: JURKAT human leukemia cell line; experiment: cells; conditions: Homo sapiens, Jurkat, 72 h
Description: as §6
(§8) JURKAT and MOLT-4 were the human leukemia cell lines selected for this assay, which were obtained from the American Type Culture Collection (ATCC).
as §1, §2
(§9) b. In a second set of experiments, concentration-response curves for the agents tested, both alone and in two-drug combination, were performed, using the same methodology described in the previous paragraph.
as §3, §4, §5

[13] = test system: MOLT-4 human leukemia cell line; experiment: cells; conditions: Homo sapiens, MOLT-4, 72 h
Description: as §6, §8, §1, §2, §9, §3, §4, §5

[14] = test system: A549 human lung carcinoma cell line; experiment: MTT cytotoxicity assay in A549 cells: IC50 of single agents and combinations with PM01183; assay type: cell-based; conditions: Homo sapiens, A549, 72 h
How it was run: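 A549 cells seeded at 5,000 per well, grown 24 h drug-free, then exposed to vehicle or compounds for 72 h, either singly or combined with PM01183. Combination responses plotted against dose ratio relative to an additivity line.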

[15] = test system: U87-MG human glioblastoma cell line; experiment: cells; conditions: Homo sapiens, U-87 MG, 72 h

SMILES	IC50 [1] [nM]	IC50 [2] [nM]	IC50 [3] [nM]	IC50 [4] [nM]	IC50 [5] [nM]	IC50 [6] [nM]	IC50 [7] [nM]	IC50 [8] [nM]	IC50 [9] [nM]	EC50 [10] [nM]	EC50 [11] [nM]	EC50 [12] [nM]	EC50 [13] [nM]	IC50 [14] [nM]	IC50 [15] [nM]
COc1cc2c(cc1O)CCN[C@]21CS[C@@H]2c3c(OC(C)=O)c(C)c4c(c3[C@H](COC1=O)N1[C@@H]2[C@H]2c3c(cc(C)c(OC)c3O)C[C@@H]([C@@H]1O)N2C)OCO4 [ET-743, trabectedin]	5.8	2	21	8	1.9	9.6	2	7.21	6.45	8.62	9.55	6.96	3.84	22.5	5
CN(Cc1cnc2nc(N)nc(N)c2n1)c1ccc(C(=O)N[C@@H](CCC(=O)O)C(=O)O)cc1 [Methotrexate, methotrexate]	33	100000	10000	120000	–	175000	5940	39.6	100000	26.3	5020	145	43.9	–	50000

— patent US11590129B2, “Combination therapy with an antitumor alkaloid” (PHARMA MAR, S.A., priority 2010, dated 2023)
